{"source": "patent US11306331B2", "about": "“Processes for the production of hydroxycinnamic acids using polypeptides having tyrosine ammonia lyase activity” (CysBio ApS, priority 2014, dated 2022)", "molecules": {"B1": {"name": "Flavobacterium johnsoniae FjXAL tyrosine ammonia lyase (Protein GI 146298870), SEQ ID NO: 1, His-tagged (N-terminal tag SEQ ID NO: 11) (Flavobacterium … (protein)", "chain": "MNTINEYLSLEEFEAIIFGNQKVTISDVVVNRVNESFNFLKEFSGNKVIYGVNTGFGPMAQYRIKESDQIQLQYNLIRSHSSGTGKPLSPVCAKAAILARLNTLSLGNSGVHPSVINLMSELINKDITPLIFEHGGVGASGDLVQLSHLALVLIGEGEVFYKGERRPTPEVFEIEGLKPIQVEIREGLALINGTSVMTGIGVVNVYHAKKLLDWSLKSSCAINELVQAYDDHFSAELNQTKRHKGQQEIALKMRQNLSDSTLIRKREDHLYSGENTEEIFKEKVQEYYSLRCVPQILGPVLETINNVASILEDEFNSANDNPIIDVKNQHVYHGGNFHGDYISLEMDKLKIVITKLTMLAERQLNYLLNSKINELLPPFVNLGTLGFNFGMQGVQFTATSTTAESQMLSNPMYVHSIPNNNDNQDIVSMGTNSAVITSKVIENAFEVLAIEMITIVQAIDYLGQKDKISSVSKKWYDEIRNIIPTFKEDQVMYPFVQKVKDHLINN"}}, "key": {"[1]": {"biological_target": "T1, Rhodobacter sphaeroides RsTAL (Protein GI 126464011), His-tagged (N-terminal tag SEQ ID NO: 11) (Cereibacter sphaeroides, UniProt Q3IWB0)", "T1 sequence (Q3IWB0 1-523)": "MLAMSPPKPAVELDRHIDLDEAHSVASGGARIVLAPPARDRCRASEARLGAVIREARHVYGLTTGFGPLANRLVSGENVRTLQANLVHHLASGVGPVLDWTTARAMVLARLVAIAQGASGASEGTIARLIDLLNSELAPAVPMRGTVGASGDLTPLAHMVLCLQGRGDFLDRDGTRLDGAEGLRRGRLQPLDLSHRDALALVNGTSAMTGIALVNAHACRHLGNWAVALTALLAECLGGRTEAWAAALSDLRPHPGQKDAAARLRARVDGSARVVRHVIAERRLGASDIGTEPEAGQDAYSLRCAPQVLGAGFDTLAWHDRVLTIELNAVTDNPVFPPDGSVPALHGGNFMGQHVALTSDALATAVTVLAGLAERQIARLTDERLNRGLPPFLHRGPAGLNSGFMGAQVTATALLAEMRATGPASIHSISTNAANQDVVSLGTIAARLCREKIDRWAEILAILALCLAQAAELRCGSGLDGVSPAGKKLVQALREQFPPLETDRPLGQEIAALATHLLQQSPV", "test": "In vitro kinetics of purified His-tagged RsTAL (tyrosine/phenylalanine ammonia lyase activity, absorbance at 315/295 nm)", "description": "Enzymatic assays were performed in 200 μL volumes in wells in a UV transparent 96-well plate, by following the increase in absorbance at 315 nm (pHCA) or 295 nm (CA). The reaction mixtures contained 2 μg of purified protein and were initiated by adding 1 mM tyrosine or 6 mM after equilibration to 30° C. The enzymatic activity was calculated as U/g, where U is defined as μmol substrate converted per minute."}, "[2]": {"biological_target": "T2, Herpetosiphon aurantiacus HaXAL1 tyrosine ammonia lyase (Protein GI 159898407), SEQ ID NO: 2, His-tagged (N-terminal tag SEQ ID NO: 11) (Herpetosiphon aurantiacus, UniProt A9AUJ9)", "T2 sequence (A9AUJ9 1-552)": "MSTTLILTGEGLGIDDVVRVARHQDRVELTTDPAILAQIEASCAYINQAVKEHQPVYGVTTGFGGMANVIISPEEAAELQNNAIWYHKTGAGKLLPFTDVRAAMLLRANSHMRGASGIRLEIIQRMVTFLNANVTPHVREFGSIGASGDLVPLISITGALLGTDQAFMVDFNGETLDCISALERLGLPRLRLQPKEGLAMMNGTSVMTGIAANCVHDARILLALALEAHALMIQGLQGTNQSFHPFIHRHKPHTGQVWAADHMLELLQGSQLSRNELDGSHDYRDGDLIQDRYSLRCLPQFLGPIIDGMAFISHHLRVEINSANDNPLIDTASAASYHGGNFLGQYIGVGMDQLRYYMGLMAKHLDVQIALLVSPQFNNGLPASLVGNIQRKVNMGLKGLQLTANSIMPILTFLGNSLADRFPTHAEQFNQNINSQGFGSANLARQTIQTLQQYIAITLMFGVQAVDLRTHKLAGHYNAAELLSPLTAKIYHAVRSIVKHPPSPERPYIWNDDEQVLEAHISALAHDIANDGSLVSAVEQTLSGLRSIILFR", "test": "In vitro kinetics of purified His-tagged HaXAL1 (tyrosine/phenylalanine ammonia lyase activity, absorbance at 315/295 nm)", "assay_type": "biochemical", "method": "(§1) The tyrosine ammonia lyase activity may for instance be determined in accordance to the following method: Enzymatic assays are performed in 200 μL volumes in wells in a UV transparent 96-well plate, by following the increase in absorbance at 315 nm (pHCA) using spectrophotometry or HPLC with UV detection. The reaction mixtures contain 2 μg of purified protein and are initiated by adding 1 mM tyrosine or 6 mM after equilibration to 30° C. The enzymatic activity is calculated as U/g, where U is defined as μmol substrate converted per minute. Negative controls contain no purified protein. Kinetic constants Km and vmax are determined from assays containing 1.56 μM to 200 μM tyrosine. See also Kyndt et al. (2002).\nFour of the enzymes were further purified by His-tag purification as follows. A DNA linker (5′ phosphorylated oligonucleotides CBJP559 and CBJP560, Table 5) was inserted in place of the sequence between the NdeI and BgIII site in plasmid pCDFDuet-1. This would result in the addition of the amino acids MAHHHHHHENLYFQ (SEQ ID NO: 11) to the N-terminal end of the polypeptides. […]\n(§2) Enzymatic assays were performed in 200 μL volumes in wells in a UV transparent 96-well plate, by following the increase in absorbance at 315 nm (pHCA) or 295 nm (CA). […] The enzymatic activity was calculated as U/g, where U is defined as μmol substrate converted per minute."}, "[3]": {"substrate": "N[C@@H](Cc1ccccc1)C(=O)O", "test": "In vitro kinetics of purified His-tagged FjXAL (tyrosine/phenylalanine ammonia lyase activity, absorbance at 315/295 nm)", "assay_type": "biochemical, Flavobacterium johnsoniae", "details": "other: FjXAL, 30° C, 1.56 μM to 200 μM tyrosine or 193 μM to 25 mM phenylalanine, pH 7.5", "method": "as §1\n(§3) Four of the enzymes were further purified by His-tag purification as follows. A DNA linker (5′ phosphorylated oligonucleotides CBJP559 and CBJP560, Table 5) was inserted in place of the sequence between the NdeI and BgIII site in plasmid pCDFDuet-1. This would result in the addition of the amino acids MAHHHHHHENLYFQ (SEQ ID NO: 11) to the N-terminal end of the polypeptides. The resulting plasmid was amplified with primers CBJP575 and CBJP576 (table 5) and the genes were amplified and combined using the Gibson reaction (New England Biolabs). The PCR amplification used the same reverse primers as in example 1, but the forward primers matching the His-tag site of the linker (Table 5). Plasmids carrying the genes (e.g. FjXAL, FIG. 4) were transformed into electrocompetent E. coli BL21(DE3)pLysS cells (Life Technologies) and selected on LB plates containing 50 ug/mL streptomycin.\n(§4) Strains expressing His-tagged versions of the enzymes were grown in LB media overnight at 37° C. and diluted into fresh LB media with 1 mM IPTG and growth was propagated overnight (approximately 18 h) at 30° C. Cells were harvested by centrifugation at 8000 rpm for 8 minutes, and disrupted by shearing into a buffer (50 mM Tris-HCl, 10 mM imidazole, 500 mM NaCl, 10% glycerol, pH 7.5). The homogenate was clarified by centrifugation at 10000 g for 10 min at 4° C., and the supernatant was loaded onto Ni2+-NTA resin column on an Äkta Pure system connected to a F9-C fraction collector (GE). Finally the fractions containing the purified polypeptide was dialyzed overnight against a buffer containing 50 mM Tris-HCl pH 7.5, 150 mM NaCl and 10% glycerol, flash-frozen in liquid nitrogen and stored at −80° C.\nas §2"}, "[4]": {"substrate": "N[C@@H](Cc1ccc(O)cc1)C(=O)O", "test": "In vitro kinetics of purified His-tagged FjXAL (tyrosine/phenylalanine ammonia lyase activity, absorbance at 315/295 nm)", "assay_type": "biochemical, Flavobacterium johnsoniae", "details": "other: FjXAL, 30° C, 1.56 μM to 200 μM tyrosine or 193 μM to 25 mM phenylalanine, pH 7.5", "method": "as §1, §3, §4, §2"}, "[5]": {"details": "30° C, 1.56 μM to 200 μM tyrosine or 193 μM to 25 mM phenylalanine"}, "[6]": {"details": "ratio of Kcat/Km for Tyr over Phe"}}}
{"molecule": "N[C@@H](Cc1ccc(O)cc1)C(=O)O", "note": "[Tyr, tyrosine]", "values": [{"measurement": "Kcat", "setting": "[1]; [5]", "result": 0.173, "unit": "s⁻¹"}, {"measurement": "TAL/PAL", "setting": "[1]; [6]", "result": 125}, {"measurement": "Kcat", "setting": "[2]; [5]", "result": 0.0517, "unit": "s⁻¹"}, {"measurement": "TAL/PAL", "setting": "[2]; [6]", "result": 540}]}
{"molecule": "B1", "values": [{"measurement": "Km", "setting": "[3]", "result": 6.6, "unit": "mM"}, {"measurement": "kcat", "setting": "[3]", "result": 0.00817, "unit": "s⁻¹"}, {"measurement": "kcat/Km", "setting": "[3]", "result": 1.23, "unit": "M⁻¹ s⁻¹"}, {"measurement": "Km", "setting": "[4]", "result": 0.0057, "unit": "mM"}]}
